Data as given in patent US10287291B2, “Seco-cyclopropapyrroloindole compounds, antibody-drug conjugates thereof, and methods of making and use” (priority 2016, dated 2019).
Like-named read-outs stand apart in the source and are kept apart here.

What was measured:
[1] = test system: HCT116/VM46 (multidrug and paclitaxel resistant subline of HCT116); assay: 72 hr ATP luminescence proliferation inhibition, HCT116/VM46; format: cell-based, human; conditions: read-out: Proliferation Inhibition of Cancer Cells EC50, HCT116/VM46
Description: (§1) Proliferation inhibition was measured using a 72 hr ATP luminescence assay (Cheng et al., U.S. Pat. No. 8,394,922 B2 (2013)).
(§2) Proliferation inhibition was measured against: (a) H226 (human mesothelioma (lung) cancer cell line); (b) N87 (human gastric (stomach) cancer cell line); (c) OVCAR3 (human ovarian cancer cell line); (d) HCT116 (human colon cancer cell line); and (e) HCT116/VM46 (multidrug and paclitaxel resistant subline of HCT116).

[2] = test system: H226 (human mesothelioma (lung) cancer cell line); assay: 72 hr ATP luminescence proliferation inhibition, H226; format: cell-based
Description: as §1, §2

[3] = test system: OVCAR3 (human ovarian cancer cell line); assay: 72 hr ATP luminescence proliferation inhibition, OVCAR3; format: cell-based
Description: as §1, §2

[4] = test system: HCT116 (human colon cancer cell line); assay: 72 hr ATP luminescence proliferation inhibition, HCT116; format: cell-based
Description: as §1, §2

[5] = test system: N87 (human gastric (stomach) cancer cell line); assay: 72 hr ATP luminescence proliferation inhibition, N87; format: cell-based; conditions: read-out: Proliferation Inhibition of Cancer Cells EC50, N87
Description: as §1, §2

[6] = read-out: Proliferation Inhibition of Cancer Cells EC50, H226
[7] = read-out: Proliferation Inhibition of Cancer Cells EC50, OVCAR3
[8] = read-out: Proliferation Inhibition of Cancer Cells EC50, HCT116
[9] = Homo sapiens, HCT-116/VM46, HCT116/VM46 cell line
[10] = Homo sapiens, NCI-H226, read-out: Proliferation Inhibition of Cancer Cells EC50, H226
[11] = Homo sapiens, OVCAR-3, read-out: Proliferation Inhibition of Cancer Cells EC50, OVCAR3
[12] = Homo sapiens, HCT-116, read-out: Proliferation Inhibition of Cancer Cells EC50, HCT116

Structure (SMILES) | EC50 ([1]; HCT116/VM46 cell line) [nM] | EC50 [2, 6] [nM] | EC50 [3, 7] [nM] | EC50 [4, 8] [nM] | EC50 [5] [nM] | EC50 [1, 9] [nM] | EC50 [2, 10] [nM] | EC50 [3, 11] [nM] | EC50 [4, 12] [nM] | EC50 ([5]; Homo sapiens) [nM]
CCCOc1ccc2[nH]c(C(=O)N3C[C@@H](CCl)c4c3cc(O)c3[nH]c(C(=O)N5CCCOCC5)cc43)cc2c1 [Ia-28] | 0.09 | 0.3 | 0.058 | 0.079 | 0.066 | – | – | – | – | –
CN(C)CCOc1ccc2[nH]c(C(=O)N3C[C@@H](CCl)c4c3cc(O)c3[nH]c(C(=O)Nc5ccc(O)cc5)cc43)cc2c1 [Ia-27] | – | 1.4 | – | – | 3.5 | – | – | – | – | –
CCOc1ccc2[nH]c(C(=O)N3C[C@@H](CCl)c4c3cc(O)c3[nH]c(C(=O)N5CCOCC5)cc43)cc2c1 [Ia-02] | – | – | – | – | – | 0.045 | 0.042 | 0.048 | 0.045 | 0.097
CN1CCN(C(=O)c2cc3c4c(cc(O)c3[nH]2)N(C(=O)c2cc3cc(N)ccc3[nH]2)C[C@H]4CCl)CC1 [Ia-26] | 12 | 9.5 | 2.7 | 4.1 | – | – | – | – | – | –
CN(C)CCOc1ccc2[nH]c(C(=O)N3C[C@@H](CCl)c4c3cc(O)c3[nH]c(C(=O)N5CCOCC5)cc43)cc2c1 [Ia-16] | – | – | – | – | – | – | 0.4 | – | – | 0.5
O=C(Nc1ccc2nc(C(=O)N3C[C@@H](CCl)c4c3cc(O)c3[nH]c(C(=O)N5CCOCC5)cc43)cn2c1)c1ccc(O)cc1 [Ib-01] | 3.5 | 2.39 | 2.8 | 3.2 | 3.6 | – | – | – | – | –
COCCOc1ccc2[nH]c(C(=O)N3C[C@@H](CCl)c4c3cc(O)c3[nH]c(C(=O)Nc5ccc(N)cc5)cc43)cc2c1 [Ia-29] | – | 0.63 | – | – | 0.26 | – | – | – | – | –
O=C(c1cc2c3c(cc(O)c2[nH]1)N(C(=O)c1cc2cc(OC4CCC4)ccc2[nH]1)C[C@H]3CCl)N1CCOCC1 [Ia-06] | 0.36 | 0.47 | 0.32 | 0.36 | 0.56 | – | – | – | – | –
CC(C)COc1ccc2[nH]c(C(=O)N3C[C@@H](CCl)c4c3cc(O)c3[nH]c(C(=O)N5CCOCC5)cc43)cc2c1 [Ia-05] | – | – | – | – | – | 0.17 | 0.18 | 0.076 | 0.17 | 0.21
COCCCOc1ccc2[nH]c(C(=O)N3C[C@@H](CCl)c4c3cc(O)c3[nH]c(C(=O)N5CCOCC5)cc43)cc2c1 [Ia-09] | – | – | – | – | – | – | 0.055 | 0.025 | – | 0.016
Nc1ccc2[nH]c(C(=O)Nc3ccc4[nH]c(C(=O)N5C[C@@H](CCl)c6c5cc(O)c5[nH]c(C(=O)N7CCOCC7)cc65)cc4c3)cc2c1 [Ic-01] | – | – | – | – | – | 0.75 | 0.91 | 0.89 | 0.43 | 1.5
O=C(c1cc2c3c(cc(O)c2[nH]1)N(C(=O)c1cc2cc(OCCO)ccc2[nH]1)C[C@H]3CCl)N1CCOCC1 [Ia-08] | – | – | – | – | – | – | 3.4 | 2.1 | – | 1.3
COc1cc2cc(C(=O)N3C[C@@H](CCl)c4c3cc(O)c3[nH]c(C(=O)N5CCOCC5)cc43)[nH]c2c(OC)c1OC [Ia-30] | – | – | – | – | – | 0.097 | 0.018 | 0.032 | 0.033 | 0.045
O=C(c1cc2c3c(cc(O)c2[nH]1)N(C(=O)c1cc2cc(OC4CCCC4)ccc2[nH]1)C[C@H]3CCl)N1CCOCC1 [Ia-15] | – | – | – | – | – | 0.26 | 0.28 | 0.21 | 0.22 | 0.32
O=C(c1cc2c3c(cc(O)c2[nH]1)N(C(=O)c1cc2cc(-c4ccccc4)ccc2[nH]1)C[C@H]3CCl)N1CCOCC1 [Ia-12] | – | – | – | – | – | 0.29 | 0.53 | 0.54 | 0.4 | 1.3
O=C(c1cc2c3c(cc(O)c2[nH]1)N(C(=O)c1cc2cc(OCC4CC4)ccc2[nH]1)C[C@H]3CCl)N1CCOCC1 [Ia-04] | – | – | – | – | – | 0.12 | 0.11 | 0.11 | 0.12 | 0.15
CNCCOc1ccc2[nH]c(C(=O)N3C[C@@H](CCl)c4c3cc(O)c3[nH]c(C(=O)N5CCOCC5)cc43)cc2c1 [Ia-17] | 25 | 1.6 | 18 | 19 | 36 | – | – | – | – | –
O=C(c1cc2c3c(cc(O)c2[nH]1)N(C(=O)c1cc2cc(OC4CCOCC4)ccc2[nH]1)C[C@H]3CCl)N1CCOCC1 [Ia-14] | – | – | – | – | – | 0.77 | 0.43 | 0.1 | 0.26 | 0.36

Structure (SMILES) | EC50 ([1]; HCT116/VM46 cell line) [nM] | EC50 [2, 6] [nM] | EC50 [3, 7] [nM] | EC50 [4, 8] [nM] | EC50 [5] [nM] | EC50 [1, 9] [nM] | EC50 [2, 10] [nM] | EC50 [3, 11] [nM] | EC50 [4, 12] [nM] | EC50 ([5]; Homo sapiens) [nM]
NCCOc1ccc2[nH]c(C(=O)N3C[C@@H](CCl)c4c3cc(O)c3[nH]c(C(=O)N5CCOCC5)cc43)cc2c1 [Ia-18] | – | – | – | – | – | 19 | 32 | 12 | 25 | 48
CNCCN(CCOCCO)C(=O)c1cc2c3c(cc(O)c2[nH]1)N(C(=O)c1cc2cc(OC)ccc2[nH]1)C[C@H]3CCl [Ia-24] | 250 | 250 | 250 | 250 | – | – | – | – | – | –
CC(C)CCOc1ccc2[nH]c(C(=O)N3C[C@@H](CCl)c4c3cc(O)c3[nH]c(C(=O)N5CCOCC5)cc43)cc2c1 [Ia-31] | 0.86 | 0.24 | 0.53 | 0.62 | 0.43 | – | – | – | – | –
CCCOc1ccc2[nH]c(C(=O)N3C[C@@H](CCl)c4c3cc(O)c3[nH]c(C(=O)N5CCOCC5)cc43)cc2c1 [Ia-03] | – | – | – | – | – | 0.034 | 0.038 | 0.026 | 0.034 | 0.048
COc1ccc2[nH]c(C(=O)N3C[C@@H](CCl)c4c3cc(O)c3[nH]c(C(=O)NCCOCCO)cc43)cc2c1 [Ia-22] | 1.2 | 5.1 | 1.1 | 1.2 | 1.9 | – | – | – | – | –
O=C(Nc1ccc2[nH]c(C(=O)N3C[C@@H](CCl)c4c3cc(O)c3[nH]c(C(=O)N5CCOCC5)cc43)cc2c1)c1ccc(O)cc1 [Id-01] | – | – | – | – | – | – | – | 1.1 | 0.93 | 2.3
Nc1ccc2[nH]c(C(=O)N3C[C@@H](CCl)c4c3cc(O)c3[nH]c(C(=O)N5CCOCC5)cc43)cc2c1 [Ia-19] | – | – | – | – | – | 3.5 | 4.2 | 1.1 | 3.2 | 3.1
Nc1ccc2[nH]c(C(=O)N3C[C@@H](CCl)c4c3cc(O)c3[nH]c(C(=O)N5CCNCC5)cc43)cc2c1 [Ia-25] | 24 | 23 | 22 | 13 | 38 | – | – | – | – | –
CC[C@@H](CO)NC(=O)c1cc2c3c(cc(O)c2[nH]1)N(C(=O)c1cc2cc(OC)ccc2[nH]1)C[C@H]3CCl [Ia-23] | 1.9 | 7.5 | 1.1 | 0.9 | 2.6 | – | – | – | – | –
O=C(c1cc2c3c(cc(O)c2[nH]1)N(C(=O)c1cc2cc(OCCC4CC4)ccc2[nH]1)C[C@H]3CCl)N1CCOCC1 [Ia-07] | – | – | – | – | – | 0.67 | 0.72 | 0.41 | 0.67 | 0.81
COc1ccc2[nH]c(C(=O)N3C[C@@H](CCl)c4c3cc(O)c3[nH]c(C(=O)N5CCOCC5)cc43)cc2c1 [Ia-11] | – | – | – | – | – | 0.92 | 1 | 0.52 | 0.58 | 1.2
CC(C)Oc1ccc2[nH]c(C(=O)N3C[C@@H](CCl)c4c3cc(O)c3[nH]c(C(=O)N5CCOCC5)cc43)cc2c1 [Ia-13] | – | – | – | – | – | 0.24 | 0.32 | 0.12 | 0.18 | 0.48
CNCCN(C)C(=O)c1cc2c3c(cc(O)c2[nH]1)N(C(=O)c1cc2cc(OC)ccc2[nH]1)C[C@H]3CCl [Ia-21] | 0.5 | 0.99 | 1.2 | 0.85 | 2.2 | – | – | – | – | –
COCOc1ccc(C(=O)Nc2ccc3nc(C(=O)N4C[C@@H](CCl)c5c4cc(O)c4[nH]c(C(=O)N6CCOCC6)cc54)cn3c2)cc1 [Ib-02] | 1.9 | 1 | 0.53 | 0.64 | 0.96 | – | – | – | – | –
COCCOc1ccc2[nH]c(C(=O)N3C[C@@H](CCl)c4c3cc(O)c3[nH]c(C(=O)N5CCOCC5)cc43)cc2c1 [Ia-01] | – | – | – | – | – | – | 0.014 | – | – | 0.007
Nc1ccc(C(=O)Nc2ccc3[nH]c(C(=O)N4C[C@@H](CCl)c5c4cc(O)c4[nH]c(C(=O)N6CCOCC6)cc54)cc3c2)cc1 [Id-02] | – | – | – | – | – | – | 1.2 | – | – | 1.4
COc1ccc2[nH]c(C(=O)N3C[C@@H](CCl)c4c3cc(O)c3[nH]c(C(=O)N5CCN(C)CC5)cc43)cc2c1 [Ia-20] | 2.6 | 6.5 | 1.5 | 1.9 | 3.5 | – | – | – | – | –
O=C(c1cc2c3c(cc(O)c2[nH]1)N(C(=O)c1cc2cc(OCC4CCCCC4)ccc2[nH]1)C[C@H]3CCl)N1CCOCC1 [Ia-10] | – | – | – | – | – | – | 0.25 | – | – | 0.15
